Patent publication US11285226B2, “Aryl ethene derivative and pharmaceutical composition containing same as active ingredient” (priority 2016, dated 2022)
Like-named read-outs stand apart in the source and are kept apart here.

Tests used:
[1] = type: in vitro ADME, dog; conditions: 1 μM, 30 minutes, 37° C.
Protocol: 2) Microsomal Stability Evaluation
(§2) Four liver microsomes (Human, Dog, Rat, Mouse 0.5 mg/ml) with a 0.1 M phosphate buffer solution (pH 7.4), and the arylethene derivative of the present invention were added to a concentration of 1 μM, culturing was performed at 37° C. for 5 minutes in advance, a NADPH regeneration system solution was added thereto, and culturing was performed at 37° C. for 30 minutes. Thereafter, in order to complete the reaction, an acetonitrile solution containing an internal standard material (chlorpropamide) was added thereto, centrifugation (14,000 rpm, 4° C.) was performed for 5 minutes, and a supernatant was injected into a LC-MS/MS system to analyze the substrate drug, thereby evaluating metabolism stability to the arylethene derivative of the present invention.

CYP1A2 = CYP1A2 (Homo sapiens (Human), UniProt P05177); test: Cytochrome P450 activity inhibition, CYP1A2; type: in vitro ADME; conditions: 10 μM, human liver microsomes
Source text: (§1) 1) Cytochrome P450 (CYP450) Activity Inhibition Evaluation

CYP2C19 = CYP2C19 (Homo sapiens (Human), UniProt P33261); test: Cytochrome P450 activity inhibition, CYP2C19; type: in vitro ADME; conditions: 10 μM, human liver microsomes
Source text: as §1

[2] = type: in vitro ADME, human; conditions: 1 μM, 30 minutes, 37° C.
Protocol: 2) Microsomal Stability Evaluation
as §2

[3] = type: in vitro ADME; conditions: PBS pH 7.4, 25° C., 5 hours
Protocol: 3) Parallel Artificial Membrane Permeability Assay (PAMPA) Evaluation
PAMPA is a method which has been developed for testing cell membrane permeability of a material in a test tube, and has been performed using a lipid tri-layer PVDF membrane available from Corning Gentest (NY, US), the used reagents were all purchased from Sigma (MO, US). First, a test material is diluted in PBS (pH 7.4) to a final concentration of 10 mM, 300 mL of the solution is added to the bottom well of a 96-transwell equipped with a PVDF membrane, and 200 mL of PBS is added to the upper well. Then, a plate is reacted at 25° C. for 5 hours, 20 mL of the solution in each well is transferred to a new container, and 80 mL of acetonitrile containing an internal standard material (4 mM chloropropamide) is added thereto. A concentration of the material in the solution is analyzed using LC-MS/MS (ThermoFisher Scientific, MO, US), and the transmittance of the material is calculated according to the equation reported in the reference document. • Reference document: A novel design of artificial membrane for improving the PAMPA model.

ERRγ = type: cell-based; conditions: for Functional Assay, Cpds/Ref 5182: activity relative to reference compound GSK5182; for Functional Assay at 10 μM (% of control), Cpds: AD293, 24 hours
Protocol: AD293 was cultured in a 24-well plate for 24 hours, using a DMEM High glucose culture medium (Hyclone, USA) to which 0.5% FBS was added at a concentration of 9×10^4/well. The culture medium was replaced with a DMEM High glucose culture medium to which 10% FBS was added, treatment was performed with a mixture of a TransIT-LT1 transfection reagent (Minis, USA) and pCMX-Gal4-ERRγ, pFR-luciferase reporter plasmid, pCMV-β-gal, and culturing was performed for 24 hours. Thereafter, a luciferase activity assay and a β-gal assay were performed, respectively, with a lysate obtained after treatment with the arylethene derivative of the present invention for 24 hours. All results were derived from three or more independent repetitive experiments.

CYP2C9 = CYP2C9 (Homo sapiens (Human), UniProt P11712); test: Cytochrome P450 activity inhibition, CYP2C9; type: in vitro ADME; conditions: 10 μM, human liver microsomes
Source text: as §1

[4] = type: in vitro ADME, rat; conditions: 1 μM, 30 minutes, 37° C.
Protocol: 2) Microsomal Stability Evaluation
as §2

CAL-62 cells = test: 125I uptake assay in anaplastic thyroid cancer cells; type: cell-based
pERK1/2 in CAL62 cells = test: Western blot, phosphorylated ERK1/2 (MAP kinase); type: cell-based; conditions: selective MEK inhibitor
CYP2D6 = CYP2D6 (Homo sapiens (Human), UniProt P10635); test: Cytochrome P450 activity inhibition, CYP2D6; type: in vitro ADME; conditions: 10 μM, human liver microsomes
Source text: as §1

CYP3A4 = CYP3A4 (Homo sapiens (Human), UniProt P08684); test: Cytochrome P450 activity inhibition, CYP3A4; type: in vitro ADME; conditions: 10 μM, human liver microsomes
Protocol: Thereafter, in order to complete the reaction, an acetonitrile solution containing an internal standard material (Terfenadine) was added thereto, centrifugation (14,000 rpm, 4° C.) was performed for 5 minutes, and a supernatant was injected into a LC-MS/MS system to analyze the metabolites of the substrate drug, thereby evaluating drug metabolism enzyme inhibition by the arylethene derivative of the present invention.

[5] = molecular target: ER alpha ligand-binding domain (LBD) (Homo sapiens (Human), UniProt P03372); conditions: beta-estradiol 4 nM as agonist; read-out: Binding Assay, IC50 ERα
Protocol: (§3) The arylethene derivative of the present invention was sequentially added to a 384 well plate from a concentration of 10 μM to a final concentration of two-fold dilution. […] After all reagents were added, a reaction was carried out with gentle shaking at 20° C. for 1 hour, and after the reaction, a binding activity was measured by a TR-FRET method.

ERR alpha LBD = ERR alpha LBD (Homo sapiens (Human), UniProt P11474); conditions: read-out: Binding Assay, IC50 ERRα
Protocol: as §3

[6] = type: in vivo; conditions: rat; for BA: PO 10 mg/kg vs IV 1 mg/kg
Protocol: An oral administration group fasts the day before.
Blood of each animal is collected at 0 hour.
Into a tail vein of an intravenous administration group (IV), a drug is injected at a dose of 1 mg/kg (syringe).
To an oral administration group (PO), a drug is orally administered at a dose of 10 mg/kg (oral zondec)
After administration, blood of the intravenous administration group was collected through a jugular vein 8 times at 0.08, 0.25, 0.5, 1, 2, 4, 6, and 8 hours. One collected blood amount is 400 to 500 ul.
After administration, blood of the oral administration group was collected through a jugular vein 6 times at 0.25, 0.5, 1, 4, 6 and 8 hours. One collected blood amount is 400 to 500 ul.
Supernatant plasma is collected by a centrifuge.
The supernatant plasma was injected into a LC-MS/MS system and the drug is analyzed.

ATC mouse tumor model = conditions: cited from earlier work
[7] = type: in vitro ADME, mouse; conditions: 1 μM, 30 minutes, 37° C.
Protocol: 2) Microsomal Stability Evaluation
as §2

Sequence of CYP2C9 (P11712 whole entry): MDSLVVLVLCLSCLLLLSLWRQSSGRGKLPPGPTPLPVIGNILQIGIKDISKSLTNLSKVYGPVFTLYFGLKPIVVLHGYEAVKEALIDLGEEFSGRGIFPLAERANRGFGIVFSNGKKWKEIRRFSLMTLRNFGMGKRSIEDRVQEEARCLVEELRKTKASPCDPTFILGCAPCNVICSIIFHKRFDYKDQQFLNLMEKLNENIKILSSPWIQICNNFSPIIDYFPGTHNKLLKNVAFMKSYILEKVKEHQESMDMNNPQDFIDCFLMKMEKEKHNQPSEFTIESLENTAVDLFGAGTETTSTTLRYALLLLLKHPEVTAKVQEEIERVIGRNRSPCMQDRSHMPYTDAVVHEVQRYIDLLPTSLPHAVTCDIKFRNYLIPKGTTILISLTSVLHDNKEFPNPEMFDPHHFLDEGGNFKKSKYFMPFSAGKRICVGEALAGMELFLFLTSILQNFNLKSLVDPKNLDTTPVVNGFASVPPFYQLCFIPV
Sequence of CYP3A4 (P08684 whole entry, the tested form may be a part): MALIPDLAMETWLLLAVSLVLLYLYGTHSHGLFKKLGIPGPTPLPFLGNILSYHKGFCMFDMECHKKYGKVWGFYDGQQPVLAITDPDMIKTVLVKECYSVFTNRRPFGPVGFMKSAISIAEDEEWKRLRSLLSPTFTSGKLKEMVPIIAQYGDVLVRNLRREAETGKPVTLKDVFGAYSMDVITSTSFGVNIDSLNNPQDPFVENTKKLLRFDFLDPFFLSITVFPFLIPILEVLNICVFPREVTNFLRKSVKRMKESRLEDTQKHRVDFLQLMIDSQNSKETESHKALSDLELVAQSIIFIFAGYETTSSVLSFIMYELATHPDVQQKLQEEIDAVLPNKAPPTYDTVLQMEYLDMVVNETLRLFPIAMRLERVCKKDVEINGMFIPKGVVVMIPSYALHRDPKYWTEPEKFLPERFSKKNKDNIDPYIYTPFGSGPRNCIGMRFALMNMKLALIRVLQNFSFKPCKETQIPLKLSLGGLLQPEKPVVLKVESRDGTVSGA
Sequence of CYP2D6 (P10635 whole entry): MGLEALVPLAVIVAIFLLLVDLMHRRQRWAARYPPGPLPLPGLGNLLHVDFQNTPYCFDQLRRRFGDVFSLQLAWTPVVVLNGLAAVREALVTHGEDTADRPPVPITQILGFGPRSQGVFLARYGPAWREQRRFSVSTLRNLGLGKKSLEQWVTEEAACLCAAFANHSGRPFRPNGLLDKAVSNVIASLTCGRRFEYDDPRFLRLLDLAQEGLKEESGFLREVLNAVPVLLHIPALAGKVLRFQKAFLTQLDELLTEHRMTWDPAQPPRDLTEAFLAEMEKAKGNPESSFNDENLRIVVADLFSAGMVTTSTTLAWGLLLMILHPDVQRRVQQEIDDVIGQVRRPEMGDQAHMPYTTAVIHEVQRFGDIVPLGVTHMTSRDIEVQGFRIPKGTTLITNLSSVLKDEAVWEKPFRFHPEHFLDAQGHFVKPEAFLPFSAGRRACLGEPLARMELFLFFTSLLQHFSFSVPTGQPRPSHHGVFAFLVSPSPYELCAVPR
Sequence of ERR alpha LBD (P11474 193-421, species assumed): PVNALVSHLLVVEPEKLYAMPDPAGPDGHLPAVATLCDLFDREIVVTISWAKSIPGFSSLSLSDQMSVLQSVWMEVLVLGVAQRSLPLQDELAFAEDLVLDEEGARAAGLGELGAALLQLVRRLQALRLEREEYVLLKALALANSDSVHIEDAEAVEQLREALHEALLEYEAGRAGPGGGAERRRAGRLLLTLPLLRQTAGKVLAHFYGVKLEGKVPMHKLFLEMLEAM
Sequence of CYP2C19 (P33261 whole entry): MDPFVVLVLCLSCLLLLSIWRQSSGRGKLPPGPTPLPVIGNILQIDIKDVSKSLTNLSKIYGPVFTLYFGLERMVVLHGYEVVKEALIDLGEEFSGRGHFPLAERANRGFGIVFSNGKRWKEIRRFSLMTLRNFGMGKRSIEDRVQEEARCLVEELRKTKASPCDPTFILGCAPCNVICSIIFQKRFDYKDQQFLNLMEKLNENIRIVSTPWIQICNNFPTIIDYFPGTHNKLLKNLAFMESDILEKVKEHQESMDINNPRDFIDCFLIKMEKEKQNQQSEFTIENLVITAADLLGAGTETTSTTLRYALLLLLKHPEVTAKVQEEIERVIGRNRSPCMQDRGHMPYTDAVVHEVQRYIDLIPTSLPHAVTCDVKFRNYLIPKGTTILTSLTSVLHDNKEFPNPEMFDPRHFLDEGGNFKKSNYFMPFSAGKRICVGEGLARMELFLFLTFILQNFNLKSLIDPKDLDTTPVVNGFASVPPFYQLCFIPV
Sequence of CYP1A2 (P05177 whole entry): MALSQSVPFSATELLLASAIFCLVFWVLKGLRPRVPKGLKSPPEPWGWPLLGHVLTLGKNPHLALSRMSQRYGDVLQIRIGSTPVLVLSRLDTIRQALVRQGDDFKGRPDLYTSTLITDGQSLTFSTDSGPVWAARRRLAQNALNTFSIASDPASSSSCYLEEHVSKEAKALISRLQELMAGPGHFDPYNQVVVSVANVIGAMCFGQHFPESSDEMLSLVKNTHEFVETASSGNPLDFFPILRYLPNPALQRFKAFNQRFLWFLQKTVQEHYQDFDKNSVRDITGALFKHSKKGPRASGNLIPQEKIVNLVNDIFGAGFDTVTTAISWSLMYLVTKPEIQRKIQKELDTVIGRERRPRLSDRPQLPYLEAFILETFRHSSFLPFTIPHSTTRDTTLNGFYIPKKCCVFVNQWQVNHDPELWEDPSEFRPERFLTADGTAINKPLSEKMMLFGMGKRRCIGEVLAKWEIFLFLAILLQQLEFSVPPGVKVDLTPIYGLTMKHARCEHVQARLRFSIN
Sequence of ER alpha ligand-binding domain (LBD) (P03372 whole entry, looked up, the tested form may be a part): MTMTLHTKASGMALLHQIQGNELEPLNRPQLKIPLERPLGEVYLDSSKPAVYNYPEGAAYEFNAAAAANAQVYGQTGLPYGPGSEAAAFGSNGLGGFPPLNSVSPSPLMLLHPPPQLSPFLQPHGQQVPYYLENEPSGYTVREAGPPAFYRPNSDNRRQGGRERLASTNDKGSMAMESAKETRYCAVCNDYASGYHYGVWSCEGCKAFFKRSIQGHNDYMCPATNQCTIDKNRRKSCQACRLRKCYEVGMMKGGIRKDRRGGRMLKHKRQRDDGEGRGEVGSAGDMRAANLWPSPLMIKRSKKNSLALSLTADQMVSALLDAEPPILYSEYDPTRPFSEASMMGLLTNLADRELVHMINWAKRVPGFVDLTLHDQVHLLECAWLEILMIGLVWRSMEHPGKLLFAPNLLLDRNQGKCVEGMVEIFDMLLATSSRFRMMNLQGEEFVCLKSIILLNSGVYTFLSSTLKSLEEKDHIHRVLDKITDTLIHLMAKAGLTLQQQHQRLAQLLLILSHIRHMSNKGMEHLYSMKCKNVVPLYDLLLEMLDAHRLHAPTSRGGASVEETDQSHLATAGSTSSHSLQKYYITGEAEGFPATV

| Structure (SMILES) | CYP inhibition (% of control) 1A2 (CYP1A2) | CYP inhibition (% of control) 2C19 (CYP2C19) | MS (Microsomal Stability) (%) human [2] [%] | Functional Assay, Cpds/Ref 5182 (ERRγ) | CYP inhibition (% of control) 2C9 (CYP2C9) | MS (Microsomal Stability) (%) rat [4] [%] | further results |
| --- | --- | --- | --- | --- | --- | --- | --- |
| OCCC/C(=C(\c1ccc(O)cc1)c1ccc(N2CCN(C3CCCC3)CC2)cc1)c1ccccc1 [Compound 22n] | 99 % of control | 83 % of control |  |  |  |  | MS (Microsomal Stability) (%) dog [1]: 72.0% |
| CC(C)N1CCC(c2ccc(/C(=C(/CCCO)c3ccccc3)c3cccc(O)c3)cc2)C1 (racemic) [Compound 22u] |  |  | 40.0 |  |  |  | MS (Microsomal Stability) (%) dog [1]: 10.0% |
| CC(C)N1CCC(c2ccc(/C(=C(/CCCO)c3ccccc3)c3cccc(O)c3)cc2)CC1 [Compound 22m] | 97 % of control | >100 % of control |  |  |  |  | MS (Microsomal Stability) (%) dog [1]: 55.0% |
| C[Si](C)(CN1CCCCC1)c1ccc(/C(=C(/CCCO)c2ccccc2)c2ccc(O)cc2)cc1 [Compound 42b] |  |  |  |  |  |  | Permeability Pampa [3]: 0.1 10^−6 cm/s |
| Cl.Cl.OCCC/C(=C(\c1ccc(O)cc1)c1ccc(OCCN2CCNCC2)cc1)c1ccccc1 [Compound 7a, (Z)-4-(5-hydroxy-2-phenyl-1-(4-(2-(piperazin-1-yl)ethoxy)phenyl)pent-1-en-1-yl)phenol 2hydrochloride Salt] |  |  | 49.0 | 0.86 |  |  |  |
| CC(C)N1CCC(c2ccc(/C(=C(/CCCO)c3ccccc3)c3ccc(O)cc3)cc2)CC1 [Compound 22k] | >100 % of control | >100 % of control |  | 0.83 | 97 % of control | 69.0 | Functional Assay at 10 μM (% of control), Cpds (ERRγ): 0.77 % of control |
| OCCC/C(=C(\c1ccc(O)cc1)c1ccc(OCCN2C[C@H]3CNC[C@H]3C2)cc1)c1ccccc1 [Compound 40, 4-((Z)-1-(4-(2-((3aR,6aS)-hexahydropyrrolo[3,4-c]pyrrol-2(1H)-yl)ethoxy)phenyl)-5-hydroxy-2-phenylpent-1-en-1-yl)phenol] |  |  |  | 0.96 |  | 72.0 |  |
| COc1cccc(-c2cc(=O)c3ccccc3o2)c1N [PD98059, reference compound] |  |  |  |  |  |  | inhibition of the radioactive iodine uptake increase by compound 18a (CAL-62 cells; selective MEK inhibitor, pre-incubated 30 minutes): completely inhibited; inhibition of the relative increase of phosphorylated ERK1 and ERK2 by compound 18a (pERK1/2 in CAL62 cells): completely inhibited |
| [K+].[O-][Cl+3]([O-])([O-])[O-] [KClO4, reference compound] |  |  |  |  |  |  | block of radioactive iodine uptake increased in compound 18a-treated cells (CAL-62 cells; co-incubated with compound 18a-treated CAL62 cells): completely blocks |
| CN1CCN(c2ccc(/C(=C(/CCCO)c3ccccc3)c3ccc(Br)cc3)cc2)CC1 [Compound 18e] | >100 % of control | 84.6 % of control |  | 0.89 | 91.3 % of control |  | CYP inhibition (% of control) 2D6 (CYP2D6): >100 % of control; CYP inhibition (% of control) 3A4 (CYP3A4): 84 % of control; Permeability Pampa [3]: 1.11 10^−6 cm/s; IC50 [5]: > 10 µM; IC50 (ERR alpha LBD): > 10 µM; AUCINF ([6]; IV 1 mg/kg): 0.06 μMh; AUCall ([6]; IV 1 mg/kg): 0.06 μMh; Vss ([6]; IV 1 mg/kg): 39.1 L/kg; t1/2 ([6]; IV 1 mg/kg): 0.8 h; AUCINF ([6]; PO 10 mg/kg): 0.09 μMh; AUCall ([6]; PO 10 mg/kg): 0.07 μMh; Cmax ([6]; PO 10 mg/kg): 10 nM; Tmax ([6]; PO 10 mg/kg): 2.8 h; BA [6]: 11.5%; Functional Assay at 10 μM (% of control), Cpds (ERRγ): 2.6 % of control |
| CN(C)CCOc1ccc(/C(=C(/CCCO)c2ccccc2)c2ccc(O)cc2)cc1 [GSK5182, reference compound] | 84.6 % of control | 78.2 % of control |  |  | 72.9 % of control |  | CYP inhibition (% of control) 2D6 (CYP2D6): 82.3 % of control; CYP inhibition (% of control) 3A4 (CYP3A4): 83 % of control; BA [6]: 8.4%; radioiodine uptake in the tumor (ATC mouse tumor model): not increased |
| Nc1ccc(/C(=C(\CCCO)c2ccccc2)c2ccc(C3CCN(C4CC4)CC3)cc2)cc1 [Compound 26d] | >100 % of control | >100 % of control |  |  |  |  | Permeability Pampa [3]: 1.04 10^−6 cm/s |
| CCN1CCN(c2ccc(/C(=C(/CCCO)c3ccccc3)c3ccc(C)cc3)cc2)CC1 [Compound 18j] | >100 % of control | 74 % of control |  |  | 87 % of control |  | MS (Microsomal Stability) (%) dog [1]: 58.0% |
| Cc1ccc(/C(=C(\CCCO)c2ccccc2)c2ccc(C3CCNCC3)cc2)cc1 [Compound 20k] |  |  |  |  |  | 89.0 |  |
| CC(C)N1CCN(c2ccc(/C(=C(/CCCO)c3ccccc3)c3ccc(NS(C)(=O)=O)cc3)cc2)CC1 [Compound 27a, (E)-N-(4-(5-hydroxy-1-(4-(4-isopropylpiperazin-1-yl)phenyl)-2-phenylpent-1-en-1-yl)phenyl)methanesulfonamide] |  |  |  |  |  | 65.0 |  |
| Cc1ccc(/C(=C(\CCCO)c2ccccc2)c2ccc(C3CCN(C)CC3)cc2)cc1 [Compound 22f] |  |  | 97.0 |  |  | 80.0 |  |
| Cc1ccc(/C(=C(\CCCO)c2ccccc2)c2ccc(N3CCN(C(C)C)CC3)cc2)cc1 [Compound 18b] |  |  |  | 0.78 |  | 40.0 | CYP inhibition (% of control) 3A4 (CYP3A4): 53 % of control; BA [6]: 8.7% |
| CN1CCC[C@H]1COc1ccc(/C(=C(/CCCO)c2ccccc2)c2ccc(O)cc2)cc1 [Compound 6h] | 103 % of control | 83.2 % of control |  |  | 62.8 % of control |  | CYP inhibition (% of control) 2D6 (CYP2D6): 90.7 % of control; CYP inhibition (% of control) 3A4 (CYP3A4): 75.4 % of control; IC50 (ERR alpha LBD): > 10 µM |
| N#CC(=C(/N)Sc1ccccc1N)/C(C#N)=C(\N)Sc1ccccc1N [Compound U0126, U0126] |  |  |  |  |  |  | inhibition of the relative increase of phosphorylated ERK1 and ERK2 by compound 18a (pERK1/2 in CAL62 cells): completely inhibited |
| OCCC/C(=C(/c1ccc(C2CCN(C3CC3)CC2)cc1)c1cccc(O)c1)c1ccccc1 [Compound 22r] | >100 % of control | >100 % of control | 62.0 |  | >100 % of control |  |  |
| Cc1ccc(/C(=C(\CCCO)c2ccccc2)c2ccc(N3CCNCC3)cc2)cc1 [Compound 20b] |  |  | 44 | 0.88 |  |  | MS (Microsomal Stability) (%) dog [1]: 58% |
| Cc1ccc(/C(=C(\CCCO)c2ccccc2)c2ccc(C3CNC3)cc2)cc1 [Compound 20d] |  |  | 83 | 0.81 |  | 54 |  |
| OCCC/C(=C(\c1ccc(O)cc1)c1ccc(OCCN2C[C@H]3C[C@H]3[C@H]2CO)cc1)c1ccccc1 [Compound 38d] | 79.2 % of control | 58.8 % of control | 6.9 | 0.77 | 55.3 % of control | 11.7 | CYP inhibition (% of control) 2D6 (CYP2D6): 54.3 % of control; CYP inhibition (% of control) 3A4 (CYP3A4): 57.6 % of control; IC50 (ERR alpha LBD): > 10 µM; MS (Microsomal Stability) (%) mouse [7]: 11.8% |
